According to patent US7199113B2, “Pharmaceutically active compounds and methods of use thereof” (priority 1998, dated 2007):

How the values were obtained:
Assay type in all cases: biochemical
FXa = biological target: T1, FXa (Homo sapiens, UniProt P00742); assay: FXa activity assay; conditions: statement on Table 1 (FIG. 2(a))
T1 construct: FX is converted to FXa by TF/VIIa complex in the absence of any compound; purchased Enzyme Research Laboratories Inc
Procedure: FX is converted to FXa by TF/VIIa complex in the absence of any compound. To do that, 54 μl of TF/VIIa (50 nM) was added to 27 ml of buffer in a 50-ml tube. Then 6 ml of FX (180 nM) was added and incubated at 37° C. for 15 minutes. Six ml of EDTA was added to stop FX activation. Five μl of compound or DMSO was placed in each well of a 96-well plate in duplicate, then 65 μl of FXa generated above was added to each well and mixed. After incubation for 15 minutes at 37° C., 10 μl of FXa substrate Spectrozyme FXa was added and incubated for 20 minutes at 37° C. Absorbance at 405 nm was then measured following addition of 20 μl of 50% acetic acid. The percent inhibition of FXa activity was calculated from OD405 nm values in the absence and presence of a compound.

[1] = system: human plasma (TF-initiated clotting); assay: Prothrombin time (PT) assay; conditions: lipidated recombinant tissue factor 1–3 nM, statement on FIG. 4
Procedure: Clot times are generally measured in seconds. Preferred PT assays are typically performed by adding a suitable amount (e.g. about 1 to 3 nM) of lipidated tissue factor to an assay solution that includes conventionally citrated plasma. The PT assay measures TF-mediated blood plasma clot time and is preferably performed by conducting the following steps: • 1) providing about 0.1 ml of citrated human plasma in a suitable assay solution, and combining same with between from about 0.5 μl to 10 μl of at least one compound to be tested (optionally dissolved in vehicle such as water or dimethylsulfoxide (DMSO)) and incubating same at room temperature for about 3 to 10 minutes, • 2) admixing into the solution from between about 0.2 ml (ca. 1–3 nM recombinant human tissue factor) and about 5–10 mM of calcium to initiate plasma clotting; and • 3) measuring the plasma clot time to determine the prothrombin clot time (PT).
The PT assay was performed at 37° C. with an Electra 800 (Medical Automation, Inc.). The PT reaction was initiated by adding 0.2 ml of lipidated recombinant human tissue factor into 0.105 ml of human plasma (Ci-Trol Control Level I, from VWR, Cat. No. 68100-336). […] Following mixing the compound (or DMSO) with plasma (Ci-Trol), 0.2 ml of lipidated reocombinant tissue factor (1–3 nM) is added to the plasma and clotting times were measured within 10 min.

TF/VIIa complex = biological target: T2, TF/VIIa complex (Homo sapiens, UniProt P13726); assay: TF/VIIa-dependent FIX activation assay; conditions: for blocking activity in standard assay for TF/VIIa-dependent factor IX activation: statement on FIG. 3; for inhibition of TF/VIIa-dependent FIX activation: statement on Table 4 (FIG. 2(d))
T2 construct: Truncated recombinant human tissue factor (e.g. composed of 243 amino acids) is expressed in E. coli; host or cells: E. coli (TF)
Procedure: In a more particular embodiment, the standard assay preferably includes the following steps: • 1) admixing in a suitable assay solution about 0.7 nM TF/VIIa complex with 300 nM factor IX and 1000 nM factor X, and from between about 0.5 μl to about 10 μl of at least one compound to be tested (optionally dissolved in an appropriate vehicle such as water or dimethylsulfoxide (DMSO)) and incubating the solution at 37° C. from between about a few minutes up to about an hour under conditions suitable for forming FIXa and FXa; • 2) contacting the solution with a suitable chelating agent such as EDTA to stop FIX activation; • 3) contacting the solution with a chromogenic substrate specific for the FXa (e.g., Spectrozyme FXa) and incubating same at 37° C.; and • 4) detecting chromophore in the solution as being indicative of the factor IX activation.
TF/VIIa is not only able to activate FX, but is also able to convert FIX to FIXa. To examine whether the two antagonists 1 and 2 were able to block FIX activation catalyzed by TF/VIIa. FIX activation experiment was conducted. To each well of a 96-well plate, 5 μl of diluted DMSO or compound was added, followed by 45 μl of TF/VIIa (0.67 nM). After mixing and incubating for 15 minutes at 37° C., 10 μl of FIX (300 nM) was added and incubated for 10 minutes at 37° C. 10 μl of EDTA ([…] in 144 mM HEPES, […], 0.576% BSA, pH adjusted to 7.5) was added, followed by addition of 10 μl of FX (1000 nM), 10 μl of polylysine, and 10 μl of Spectrozyme FXa (6 mM). After 3 hour incubation at 37° C., absorbance at 405 nm was measured following addition of 20 μl of 50% acetic acid. The percent inhibition of TF/VIIa-dependent FIX activation was calculated from OD405 nm values in the absence and presence of a compound.

TF/FVIIa complex = biological target: T3, TF/FVIIa complex (Homo sapiens, UniProt P08709+P13726, DEL276-295); assay: FVIIa activity assay (TF/VIIa catalytic activity toward S-2288); conditions: statement on Table 1 (FIG. 2(a))
T3 construct: proteolytic cleavage of the zymogen FVII to the active serine protease FVIIa; Truncated recombinant human tissue factor (e.g. composed of 243 amino acids) is expressed in E. coli; host or cells: E. coli (TF)
Procedure: Factor VIIa (FVIIa) activity, or the effect of TF and FVIIa interactions, can be determined in the presence of TF using FX and a small peptide (chromogenic) substrate or in the absence of TF using FX as substrate. Assays using FVIIa-specific chromogenic substrate S-2288 directly measures the effect of a compound on FVIIa catalytic activity. In this assay, 55 μl of TF/FVIIa complex (containing 10 nM TF and 10 nM VIIa) was first incubated with 5 μl of DMSO (or diluted DMSO) or compound, in a 96-well plate for 15 minutes at 37° C., then admixed with 20 μl of 8 mM S-2288. The reaction was incubated for 1–2 hours at 37° C. Absorbance at 405 nm was then measured after the reaction was quenched with 20 μl of 50% acetic acid. The percent inhibition of TF/VIIa activity was calculated from OD405 nm values in the absence and presence of a compound. […] Inhibition of TF/VIIa activity toward S-2288 by the two compounds would be expected if they were to bind to VIIa active site or prevent TF and VIIa from forming an active complex.

[2] = biological target: Russell's viper venom (RVV) (Daboia siamensis, UniProt Q7LZ61)
Chain of Russell's viper venom (RVV) (Q7LZ61 whole entry, looked up): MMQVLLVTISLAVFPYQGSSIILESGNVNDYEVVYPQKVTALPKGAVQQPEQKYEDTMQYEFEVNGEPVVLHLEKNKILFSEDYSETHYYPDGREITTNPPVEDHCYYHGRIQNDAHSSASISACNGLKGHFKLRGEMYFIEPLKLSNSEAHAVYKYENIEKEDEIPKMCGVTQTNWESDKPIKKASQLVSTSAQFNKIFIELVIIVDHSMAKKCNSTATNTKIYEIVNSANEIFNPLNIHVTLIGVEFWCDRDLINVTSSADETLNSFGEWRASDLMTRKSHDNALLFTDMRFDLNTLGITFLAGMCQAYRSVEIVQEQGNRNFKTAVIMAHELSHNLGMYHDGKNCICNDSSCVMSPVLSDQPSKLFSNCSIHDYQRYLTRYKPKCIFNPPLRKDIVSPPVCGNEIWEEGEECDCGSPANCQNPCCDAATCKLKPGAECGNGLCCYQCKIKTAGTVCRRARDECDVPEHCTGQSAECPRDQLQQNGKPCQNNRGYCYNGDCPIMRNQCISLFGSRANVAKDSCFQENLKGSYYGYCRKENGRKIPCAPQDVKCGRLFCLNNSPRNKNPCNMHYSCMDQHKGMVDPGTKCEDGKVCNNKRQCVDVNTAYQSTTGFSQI

T1 sequence (P00742 235-488 limits assumed): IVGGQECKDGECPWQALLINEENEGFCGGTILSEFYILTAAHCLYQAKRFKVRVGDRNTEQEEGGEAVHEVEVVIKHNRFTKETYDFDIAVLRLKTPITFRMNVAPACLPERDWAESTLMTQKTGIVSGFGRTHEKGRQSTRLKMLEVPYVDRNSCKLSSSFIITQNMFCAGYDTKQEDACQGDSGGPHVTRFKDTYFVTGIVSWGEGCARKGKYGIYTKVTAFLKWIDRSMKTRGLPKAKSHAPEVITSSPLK
T1 sequence (P00742 41-179 limits assumed): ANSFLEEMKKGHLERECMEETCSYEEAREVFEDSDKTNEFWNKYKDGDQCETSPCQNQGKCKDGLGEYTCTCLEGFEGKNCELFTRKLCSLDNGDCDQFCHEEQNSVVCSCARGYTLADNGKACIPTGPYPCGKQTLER

Row | SMILES | inhibition of FXa activity (FXa) | effect on TF-initiated PT times (clotting time) [1] | blocking activity in standard assay for TF/VIIa-dependent factor IX activation (TF/VIIa complex) | inhibition of TF/VIIa-dependent FIX activation (TF/VIIa complex) | effect on TF/VIIa catalytic activity toward S-2288 (TF/FVIIa complex) | inhibition of RVV-dependent FX activation [2]
1 | O=P(O)(O)C(CNc1cccc(O)c1)P(=O)(O)O [Compound 1, 1-(bisphosponate)-2-amino(3-hydroxyphenyl)ethyl] | do not inhibit FXa activity | prolonged TF-initiated PT times significantly | good blocking activity | inhibit TF/VIIa-dependent FIX activation | do not have significant effect | do not inhibit RVV catalytic activity
2 | O=P(O)(O)C(CNc1ccc(O)cc1)P(=O)(O)O [Compound 2] | do not inhibit FXa activity | prolonged TF-initiated PT times significantly | good blocking activity | inhibit TF/VIIa-dependent FIX activation | do not have significant effect | do not inhibit RVV catalytic activity
